Source: US20090192077A1, “North-2'deoxy -methanocarbathymidines as antiviral agents for treatment of kaposi's sarcoma-associated herpes virus” (priority 2005, published 2009)

How the values were obtained:
HSV-1 TK = HSV-1 TK (Human herpesvirus 1, UniProt P0DTH5); conditions: cited from earlier work
EBV TK = EBV TK (Epstein-Barr virus, UniProt P03177); conditions: cited from earlier work
human cellular TK = conditions: cited from earlier work
BCBL-1 cells = test: Intracellular phosphorylation in KSHV-infected BCBL-1 cells (HPLC of methanolic extracts)
Description: Exponentially growing BCBL-1 cells or CEM-SS cells (a human T cell line) were washed three times with PBS and cultured in serum free AIM-V w/BSA medium (Invitrogen) at 2×10^5 cells/mL in the absence (unstimulated control) or presence of 20 ng/mL PMA. After 24 hours, unstimulated and PMA-stimulated cells were harvested, washed once with PBS and resuspended in serum free AIM-V […] radiolabeled compound [^3H]-(N)-MCT, [^3H]-CDV or [^3H]-GCV. Control cultures containing the same concentration of the test compounds but without the radiolabeled formulations were simultaneously set up in an identical manner to assess the cell counts and to evaluate their anti-KSHV activity. In selected experiments, 5′-ET was added at 10˜50 μM to investigate the changes in the anti-KSHV activity and intracellular phosphorylation profiles of the test compounds. The cells were harvested after 24 or 72 hours of incubation.
Upon harvest, the cells were centrifuged at 1,500 rpm for 10 min and washed once with cold PBS. The cell pellets were resuspended in 250 μL of 60% methanol and heated at 95° C. for 3 min, followed by a microcentrifugation at 12,000 g for 10 min at 4° C. The clarified supernatant fractions were evaporated under nitrogen, redissolved in 250 μL of water and subjected to HPLC separation of the phosphorylated metabolites as described in detail elsewhere (Noy, R. et al. 2002 Mol Cancer Ther 1:585-93; Zalah, L. et al. 2002 Antiviral Res 55:63-75). Fractions containing radiolabeled nucleotides were quantitated based on the known specific activity of the parent tritiated nucleoside (Noy, R. et al. 2002 Mol Cancer Ther 1:585-93; Zalah, L. et al. 2002 Antiviral Res 55:63-75).

CEM-SS cells = test: Intracellular phosphorylation in uninfected CEM-SS cells; conditions: 10 μM N-MCT, with or without PMA-stimulation
Description: Exponentially growing BCBL-1 cells or CEM-SS cells (a human T cell line) were washed three times with PBS and cultured in serum free AIM-V w/BSA medium (Invitrogen) at 2×10^5 cells/mL in the absence (unstimulated control) or presence of 20 ng/mL PMA. After 24 hours, unstimulated and PMA-stimulated cells were harvested, washed once with PBS and resuspended in serum free AIM-V w/BSA medium at 2×10^5 cells/mL without PMA in the absence or presence of 10 μM N-MCT, CDV or GCV and 5 μCi/mL of the corresponding radiolabeled compound [^3H]-(N)-MCT, [^3H]-CDV or [^3H]-GCV. Control cultures containing the same concentration of the test compounds but without the radiolabeled formulations were simultaneously set up in an identical manner to assess the cell counts and to evaluate their anti-KSHV activity. In selected experiments, 5′-ET was added at 10˜50 μM to investigate the changes in the anti-KSHV activity and intracellular phosphorylation profiles of the test compounds. The cells were harvested after 24 or 72 hours of incubation.
Upon harvest, the cells were centrifuged at 1,500 rpm for 10 min and washed once with cold PBS. […] Fractions containing radiolabeled nucleotides were quantitated based on the known specific activity of the parent tritiated nucleoside (Noy, R. et al. 2002 Mol Cancer Ther 1:585-93; Zalah, L. et al. 2002 Antiviral Res 55:63-75).

Sequence of EBV TK (P03177 whole entry): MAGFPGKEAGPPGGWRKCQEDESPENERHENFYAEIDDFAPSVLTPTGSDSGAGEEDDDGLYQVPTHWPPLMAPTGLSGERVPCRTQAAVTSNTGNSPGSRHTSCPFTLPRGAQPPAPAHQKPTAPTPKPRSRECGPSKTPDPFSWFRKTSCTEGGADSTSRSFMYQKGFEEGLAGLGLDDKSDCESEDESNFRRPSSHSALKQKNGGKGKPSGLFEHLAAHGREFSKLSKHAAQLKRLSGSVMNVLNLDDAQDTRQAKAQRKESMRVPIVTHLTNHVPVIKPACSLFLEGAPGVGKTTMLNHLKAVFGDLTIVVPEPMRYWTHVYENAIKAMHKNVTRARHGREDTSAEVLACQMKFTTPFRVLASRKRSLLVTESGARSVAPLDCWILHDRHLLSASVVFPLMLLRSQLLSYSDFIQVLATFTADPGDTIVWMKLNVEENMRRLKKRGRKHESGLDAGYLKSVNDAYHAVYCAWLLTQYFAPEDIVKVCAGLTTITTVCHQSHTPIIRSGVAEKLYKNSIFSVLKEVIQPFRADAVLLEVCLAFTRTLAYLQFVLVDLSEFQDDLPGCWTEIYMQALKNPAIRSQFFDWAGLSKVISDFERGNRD
Sequence of HSV-1 TK (P0DTH5 whole entry): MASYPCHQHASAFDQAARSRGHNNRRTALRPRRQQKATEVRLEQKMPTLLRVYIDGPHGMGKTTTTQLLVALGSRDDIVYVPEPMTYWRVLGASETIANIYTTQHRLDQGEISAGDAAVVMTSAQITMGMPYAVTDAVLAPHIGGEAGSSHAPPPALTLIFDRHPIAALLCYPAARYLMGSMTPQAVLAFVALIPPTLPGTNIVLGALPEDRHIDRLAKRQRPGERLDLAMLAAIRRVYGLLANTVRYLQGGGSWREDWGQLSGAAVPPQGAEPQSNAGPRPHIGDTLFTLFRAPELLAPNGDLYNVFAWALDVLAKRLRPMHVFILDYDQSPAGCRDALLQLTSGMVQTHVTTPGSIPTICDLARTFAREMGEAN

intracellular level compared with CDV-DP and GCV-TP (BCBL-1 cells; 10 μM of each compound, up to 72 hours, especially PMA-stimulated BCBL-1) | level of phosphorylated metabolite in the presence of 50 μM 5'-ET (BCBL-1 cells; PMA-induced BCBL-1, 1, 3 or 10 μM N-MCT) | accumulation of phosphorylated metabolite in uninfected cells (CEM-SS cells) | SMILES | inhibitory activity against HSV-1 TK (HSV-1 TK) | inhibitory activity against EBV TK (EBV TK) | inhibitory activity against human cellular TK (human cellular TK)
 |  |  | C#CC(O)[C@H]1O[C@@H](n2cc(C)c(=O)[nH]c2=O)C[C@@H]1O (stereo partly drawn) [5′-ET, 5′-ethynylthymidine] | strong inhibitory activity | strong inhibitory activity | not against human cellular TK
significantly higher | substantially decreased | no appreciable accumulations | Cc1cn([C@H]2C[C@H](O)[C@]3(COP(=O)(O)OP(=O)(O)OP(=O)(O)O)C[C@H]23)c(=O)[nH]c1=O [N-MCT-TP, North-methanocarbathymidine triphosphate] |  |  | 
